Source: ChEMBL document CHEMBL4622898, “Synthesis, in vitro ADME profiling and in vivo pharmacological evaluation of novel glycogen phosphorylase inhibitors” (Bioorg Med Chem Lett, 2020)
In brackets after ≈: the same amount, converted by molar mass. Activity calls are given as the source filed them. The rule behind the calls is not given here.

Tests used:
[1] = Lipophilicity, log D of the compound in 1-Octanol-phosphate buffer at pH 7.4; type: physicochemical
Hepatocyte = assay: Inhibition of glycogenolysis in rat hepatocytes assessed as GCN-stimulated glycogen breakdown after 5 mins; type: functional, cell-based
[2] = Intrinsic clearance in mouse liver microsomes; type: ADME, Microsome
[3] = Stability of compound in simulated intestinal fluid assessed as compound degradation measured up to 1 hr; type: physicochemical; details: simulated gi fluid
[4] = Half life in mouse liver microsomes; type: ADME, Microsome
HepG2 = assay: Inhibition of glycogenolysis in human HepG2 cells assessed as GCN-stimulated glycogen breakdown after 5 mins; type: functional, cell-based; details: HepG2, 5 min
[5] = Clearance in mouse liver microsomes; type: ADME, Microsome
[6] = Inhibition of rabbit muscle Glycogen phosphorylase measured phosphate release from glucose-1-phosphate; parameters: species or system Oryctolagus cuniculus
physchem = details: buffer, pH 7.4
Description: Kinetic solubility of compound at pH 7.4 by high-throughput kinetic solubility assay

[7] = Stability of compound in mouse plasma assessed as compound degradation measured up to 0.5 hrs; type: ADME, cell-free
[8] = Stability of compound in simulated gastric fluid assessed as compound degradation measured up to 24 hrs relative to control; type: physicochemical; details: read-out: Drug degradation
Mus musculus [9] = assay: Hypoglycemic activity in adrenaline-induced diabetic mouse assessed as fasted plasma glucose level at 200 mg/kg, po measured after 60 min (reference value: 8.41 +/- 0.48); type: functional
Mus musculus [10] = assay: Hypoglycemic activity in adrenaline-induced diabetic mouse assessed as fasted plasma glucose level at 200 mg/kg, po measured after 30 min (reference value: 9.58 +/- 0.44); type: functional
Mus musculus [11] = assay: Hypoglycemic activity in adrenaline-induced diabetic mouse assessed as glucose AUC at 200 mg/kg, po measured up to 90 min (reference value: 482.63 +/- 21.01 mg/dL.min); type: functional, organism-based; parameters: dose 200 mg/kg, time < 1.5 hr
Mus musculus [12] = assay: Hypoglycemic activity in adrenaline-induced diabetic mouse assessed as fasted plasma glucose level at 200 mg/kg, po measured after 90 min (reference value: 7.56 +/- 0.49); type: functional
Mus musculus [13] = assay: Hypoglycemic activity in adrenaline-induced diabetic mouse assessed as fasted plasma glucose level at 200 mg/kg, po measured immediately (reference value: 4.84 +/- 0.15); type: functional
[14] = Inhibition of recombinant human liver glycogen phosphorylase a expressed in baculovirus-infected Sf9 cells using glucose-1-phosphate as substrate in presence of 7.5 mM glucose
[15] = Aqueous solubility of compound; type: physicochemical; details: buffer
[16] = Stability of compound in mouse plasma assessed as compound degradation measured up to 24 hrs; type: ADME, cell-free
[17] = Stability of compound in simulated gastric fluid assessed as compound degradation measured up to 24 hrs; type: physicochemical; details: simulated gi fluid
Mus musculus [18] = assay: Hypoglycemic activity in adrenaline-induced diabetic fasted mouse assessed as reduction in plasma glucose level at 12.5 to 50 mg/kg, po; type: functional, organism-based
Mus musculus [19] = assay: Hypoglycemic activity in adrenaline-induced diabetic mouse assessed as fasted plasma glucose level at 50 mg/kg, po measured after 30 min (reference value: 9.58 +/- 0.44); type: functional
Mus musculus [20] = assay: Hypoglycemic activity in adrenaline-induced diabetic mouse assessed as glucose AUC at 25 mg/kg, po measured up to 90 min (reference value: 482.63 +/- 21.01 mg/dL.min); type: functional, organism-based; parameters: dose 25 mg/kg, time < 1.5 hr
Mus musculus [21] = assay: Hypoglycemic activity in adrenaline-induced diabetic mouse assessed as fasted plasma glucose level at 25 mg/kg, po measured after 30 min (reference value: 9.58 +/- 0.44); type: functional
Mus musculus [22] = assay: Hypoglycemic activity in adrenaline-induced diabetic mouse assessed as fasted plasma glucose level at 50 mg/kg, po measured after 60 min (reference value: 8.41 +/- 0.48); type: functional
Mus musculus [23] = assay: Hypoglycemic activity in adrenaline-induced diabetic mouse assessed as glucose AUC at 12.5 mg/kg, po measured up to 90 min (reference value: 482.63 +/- 21.01 mg/dL.min); type: functional, organism-based; parameters: time < 1.5 hr, dose 12.5 mg/kg
[24] = Stability of compound in simulated intestinal fluid assessed as compound degradation measured up to 6 hrs; type: physicochemical; details: simulated gi fluid
Mus musculus [25] = assay: Hypoglycemic activity in adrenaline-induced diabetic mouse assessed as fasted plasma glucose level at 12.5 mg/kg, po measured after 60 min (reference value: 8.41 +/- 0.48); type: functional
Mus musculus [26] = assay: Hypoglycemic activity in adrenaline-induced diabetic mouse assessed as fasted plasma glucose level at 12.5 mg/kg, po measured after 90 min (reference value: 7.56 +/- 0.49); type: functional
Mus musculus [27] = assay: Hypoglycemic activity in adrenaline-induced diabetic mouse assessed as fasted plasma glucose level at 50 mg/kg, po measured after 90 min (reference value: 7.56 +/- 0.49); type: functional
Mus musculus [28] = assay: Hypoglycemic activity in adrenaline-induced diabetic mouse assessed as fasted plasma glucose level at 12.5 mg/kg, po measured immediately (reference value: 4.84 +/- 0.15); type: functional
Mus musculus [29] = assay: Hypoglycemic activity in adrenaline-induced diabetic mouse assessed as fasted plasma glucose level at 25 mg/kg, po measured after 60 min (reference value: 8.41 +/- 0.48); type: functional
Mus musculus [30] = assay: Hypoglycemic activity in adrenaline-induced diabetic mouse assessed as glucose AUC at 50 mg/kg, po measured up to 90 min (reference value: 482.63 +/- 21.01 mg/dL.min); type: functional, organism-based; parameters: time < 1.5 hr, dose 50 mg/kg
Mus musculus [31] = assay: Hypoglycemic activity in adrenaline-induced diabetic mouse assessed as fasted plasma glucose level at 25 mg/kg, po measured immediately (reference value: 4.84 +/- 0.15); type: functional
Mus musculus [32] = assay: Hypoglycemic activity in adrenaline-induced diabetic mouse assessed as fasted plasma glucose level at 25 mg/kg, po measured after 90 min (reference value: 7.56 +/- 0.49); type: functional
Mus musculus [33] = assay: Hypoglycemic activity in adrenaline-induced diabetic mouse assessed as fasted plasma glucose level at 12.5 mg/kg, po measured after 30 min (reference value: 9.58 +/- 0.44); type: functional
Mus musculus [34] = assay: Hypoglycemic activity in adrenaline-induced diabetic mouse assessed as fasted plasma glucose level at 50 mg/kg, po measured immediately (reference value: 4.84 +/- 0.15); type: functional
Mus musculus [35] = species on record: Mus musculus; assay: Hypoglycemic activity in adrenaline-induced diabetic mouse assessed as blood glucose level measured at 1.5 hrs (reference value: 486.15 +/- 22.65 mg/dl); type: functional

SMILES	logD [1]	IC50 (Hepatocyte) [nM]	CLint [2] [µL/min/mg]	Stability [3]	half-life [4] [min]	IC50 (HepG2) [nM]	CLint scaled [5] [mL/min/kg]	IC50 [6] [nM]	solubility kinetic (physchem) [µM]	other results
CN(C)CCCN1c2ccccc2Sc2ccc(Cl)cc21 [CHLORPROMAZINE]	3.23									
COC(=O)CNC(=O)[C@H](Cc1ccccc1)NC(=O)c1cc2cc(Cl)ccc2[nH]1	3.95	720	90	Unstable	15.4	662	356	48.7	1.89 (≈ 0.782 µg/mL)	Stability [7]: Unstable; degraded at 24 h [8]: 50%
CN(C)C(=N)NC(=N)N [METFORMIN]										plasma glucose (Mus musculus [9]): 5.79 mM; plasma glucose (Mus musculus [10]): 8.85 mM; AUC (Mus musculus [11]): 374 mg/dL×min; OD (Mus musculus [12]): 5; OD (Mus musculus [13]): 4.76
O=C(O)Cc1ccccc1Nc1c(Cl)cccc1Cl [DICLOFENAC]			51.2		27.1		203			
CN(C)C(=O)[C@H](O)[C@H](Cc1ccccc1)NC(=O)c1cc2cc(Cl)ccc2[nH]1		3170				3310		92.2		IC50 [14]: 110 nM; solubility [15]: < 1000 µg/mL
NC(=O)[C@@H](Cc1ccccc1)NC(=O)CNC(=O)c1cc2cc(Cl)ccc2[nH]1	3.32	7650	< 9.6	Unstable	> 145	6470	< 38	555	36.8 (≈ 14.7 µg/mL)	Stability [16]: Stable; Stability [17]: Stable
O=C(N[C@@H](Cc1ccc(O)cc1)c1nc2ccccc2[nH]1)c1cc2cc(Cl)ccc2[nH]1		9460				8390		578		
O=C(O)CNC(=O)[C@H](Cc1ccccc1)NC(=O)c1cc2cc(Cl)ccc2[nH]1	0.72	7150	< 9.6	Stable	> 145	3240	< 38	289	188 (≈ 75.1 µg/mL)	Activity (Mus musculus [18]): Active; Stability [16]: Stable; plasma glucose (Mus musculus [19]): 9.03 mM; AUC (Mus musculus [20]): 451 mg/dL×min; plasma glucose (Mus musculus [21]): 9.52 mM; plasma glucose (Mus musculus [22]): 6.83 mM; AUC (Mus musculus [23]): 449 mg/dL×min; Stability [24]: Unstable; plasma glucose (Mus musculus [25]): 7.4 mM; plasma glucose (Mus musculus [26]): 7.47 mM; plasma glucose (Mus musculus [27]): 6.05 mM; OD (Mus musculus [28]): 4.89; plasma glucose (Mus musculus [29]): 7.62 mM; AUC (Mus musculus [30]): 416 mg/dL×min; OD (Mus musculus [31]): 4.85; plasma glucose (Mus musculus [32]): 6.7 mM; Stability [17]: Stable; plasma glucose (Mus musculus [33]): 8.92 mM; OD (Mus musculus [34]): 4.86; Activity (Mus musculus [35]): 446.25 mg/dL
